# Source: patent publication US6921665B2, “Selective antibody targeting of undifferentiated stem cells” (Roslin Institute (Edinburgh), priority 2001, dated 2005)
# B1: BDNF: brain derived neurotrophic factor, member of the neurotrophin growth factor family (protein, UniProt P23560 19-247, looked up)
# Neurotrophic factor BDNF …: APMKEANIRGQGGLAYPGVRTHGTLESVNGPKAGSRGLTSLADTFEHVIEELLDEDQKVRPNEENNKDADLYTSRVMLSSQVPLEPPLLFLLEEYKNYLDAANMSMRVRRHSDPARRGELSVCDSISEWVTAADKKTAVDMSGGTVTVLEKVPVSKGQLKQYFYETKCNPMGYTKEGCRGIDKRHWNSQCRTTQSYVRALTMDSKKRIGWRFIRIDTSCVCTLTIKRGR
# B2: neurotrophin-3: member of the neurotrophin growth factor family (protein, UniProt P20783 139-257, looked up)
# Neurotrophin-3: YAEHKSHRGEYSVCDSESLWVTDKSSAIDIRGHQVTVLGEIKTGNSPVKQYFYETRCKEARPVKNGCRGIDDKHWNSQCKTSQTYVRALTSENNKLVGWRWIRIDTSCVCALSRKIGRT
# Tests used:
# [1] = tested on: hTERT expression; test: RT-PCR for hTERT expression after differentiation factors; format: cell-based, human; conditions: after exposure of hES cells to the factor
# Experimental: For radioactive relative quantification of individual gene products, QuantumRNA™ Alternate18S Internal Standard primers (Ambion, Austin Tex., USA) were employed according to the manufacturer's instructions. Briefly, the linear range of amplification of a particular primer pair was determined, then coamplified with the appropriate mixture of alternate18S primers:competimers to yield PCR products with coinciding linear ranges. Before addition of AmpliTaq™ (Roche) to PCR reactions, the enzyme was pre-incubated with the TaqStar™ antibody (ProMega) according to manufacturer's instructions. Radioactive PCR reactions were analyzed on 5% non-denaturing polyacrylamide gels, dried, and exposed to phosphoimage screens (Molecular Dynamics) for 1 hour. Screens were scanned with a Molecular Dynamics Storm 860 and band intensities were quantified using ImageQuant™ software. Results are expressed as the ratio of radioactivity incorporated into the hTERT or OCT-4 band, standardized to the radioactivity incorporated into the 18s band.
# Primers and amplification conditions for particular markers are as follows. […]
# [2] = tested on: Undifferentiated H1 cells; test: Total cell number of undifferentiated H1 hES cells by flow cytometry after TPAC vector and/or GCV; format: cell-based, human; conditions: GCV alone, 30 μM
# Experimental: (§1) Undifferentiated H1 cells were plated into 24 well plates (1 confluent well of a 6 well plate split into 24 wells of a 24 well plate). After 48 h, some wells were infected with the TPAC vector at an MOI of 30 or 100. Four h after addition of the viral vector, medium was exchanged for new mouse embryonic fibroblast conditioned medium (mEF-CM); some wells received medium supplemented with 30 μM ganciclovir (GCV). Cells exposed to GCV were re-fed with mEF-CM containing 30 μM GCV daily for 4 days. On days 2,3, and 4 after the initiation of GCV treatment, wells were harvested and analyzed by flow cytometry to assess changes in 1) total cell number and 2) cell viability (measured by PI exclusion).
# [3] = tested on: hES lines H1 and H7; test: Comparison of different hES lines, total cell number after pGRN376 plus GCV; format: cell-based, human; conditions: two hES lines
# Experimental: Undifferentiated hES of lines designated Hi and H7 cells were plated into 24 well plates (1 confluent well of a 6 well plate split into 24 wells of a 24 well plate). […] Four h after addition of the viral vector, medium was exchanged for new mEF-CM; some wells received medium supplemented with 20 μM GCV. Cells exposed to GCV were re-fed with mEF-CM containing GCV daily for 3 days. On day 4 after the initiation of GCV treatment, wells were harvested and analyzed by flow cytometry to assess changes in total cell number.
# [4] = tested on: Undifferentiated H1 cells; test: Cell viability (PI exclusion, cells in ES gate) of H1 hES cells after TPAC vector and/or GCV; format: cell-based, human; conditions: GCV alone
# Experimental: as §1
# [5] = tested on: normal BJ cells; test: Ganciclovir treatment in vitro of normal cells carrying hTERT promoter/tk constructs; format: cell-based
# Experimental: (§2) The ability of the hTERT promoter to specifically drive the expression of the thymidine kinase (tk) gene in tumor cells was tested using a variety of constructs: One construct, designated pGRN266, contains an EcoRI-FseI PCR fragment with the tk gene cloned into the EcoRI-FseI sites of pGRN263. pGRN263, containing approximately 2.5 kb of hTERT promoter sequence, is similar to pGRN150, but contains a neomycin gene as selection marker. pGRN267 contains an EcoRI-FseI PCR fragment with the tk gene cloned into the EcoRI-FseI sites of pGRN264. pGRN264, containing approximately 210 bp of hTERT promoter sequence, is similar to pGRN176, but contains a neomycin gene as selection marker. pGRN268 contains an EcoRI-XbaI PCR fragment with the tk gene cloned into the EcoRI-XbaI (unmethylated) sites of pGRN265. pGRN265, containing approximately 90 bp of hTERT promoter sequence, is similar to pGRN175, but contains a neomycin gene as selection marker.
# (§3) These hTERT promoter/tk constructs, pGRN266, pGRN267 and pGRN268, were re-introduced into mammalian cells and tk/+stable clones (and/or mass populations) were selected. […] Ganciclovir treatment had no effect on normal BJ cells.
# [6] = tested on: tumor lines 143B, 293, HT1080, Bxpc-3', DAOY and NIH3T3; test: Ganciclovir treatment in vitro of tk/+ tumor lines carrying hTERT promoter/tk constructs; format: cell-based; conditions: cells carrying pGRN266, pGRN267 or pGRN268
# Experimental: as §2, §3
# [7] = tested on: TPAC vector treated hES cells; test: Titration of GCV in TPAC vector treated hES cells; format: cell-based, human; conditions: pGRN376 MOI 30; GCV 5-40 μM tested; day 2
# Experimental: Undifferentiated Hi cells were plated into 24 well plates (1 confluent well of a 6 well plate split into 24 wells of a 24 well plate). After 48 h, some wells were infected with pGRN376 at an MOI of 30. Four h after addition of the viral vector, medium was exchanged for new mEF-CM; some wells received medium supplemented with 5, 10, 20, 30, or 40 μM ganciclovir (GCV). Cells exposed to GCV were re-fed with mEF-CM containing GCV daily for 2 days. On day 2 after the initiation of GCV treatment, wells were harvested and analyzed by flow cytometry to assess changes in total cell number, and cell viability (measured by PI exclusion).
# [8] = tested on: H9 cell line; test: Sensitivity of the H9 line to GCV after TPAC vector treatment; format: cell-based, human; conditions: subsequent studies
# Source text: Thus, different hES cell lines respond to the TPAC vector.
# [9] = tested on: hES cells; test: Neuron formation from hES cells with neurotrophin growth factors (β-tubulin positive cell count); format: cell-based, human; conditions: 7 days of differentiation
# Experimental: The effect of several members of the neurotrophin growth factor family was examined. hES cells were differentiated by harvesting with collagenase, dissociating, and reseeding onto poly-ornithine coated cover slips. The cells were plated into DMEM/F12+N2+10% FBS overnight. The following day, the serum was removed from the medium and replaced with 10 ng/mL human bFGF and the growth factor being tested. After 24 hours, bFGF was removed from the medium. These cultures were fed every other day. They were fixed after 7 days of differentiation and immunostained for analysis. The number of neurons was evaluated by counting cells positive for β-tubulin. Cultures maintained in the presence of 10 ng/mL brain derived neurotrophic factor (BDNF) formed approximately 3-fold more neurons than the control cultures. Cultures maintained in neurotrophin-3 (1 ng/mL) formed approximately 2-fold more neurons than control cultures.
molecule,measurement,setting,value
C[S+](C)[O-] [dimethyl sulfoxide],expression of hTERT,[1],markedly decreased
"Nc1nc(O)c2ncn(COC(CO)CO)c2n1 [GCV, ganciclovir]",cells as percent of the control wells,[2]; day 2,approximately 55%
same,cells as percent of the control wells,[2]; day 4,40%
same,sensitivity to GCV after treatment with the TPAC vector,[3],sensitive
same,cells in ES gate,[4]; day 2 (control 85%),75%
same,cells in ES gate,[4]; day 3 (control 82%),68%
same,cells in ES gate,[4]; day 4 (control 65%),50%
same,effect of ganciclovir,[5],no effect
same,effect of ganciclovir on tk/+ cells,[6],selective destruction of all tumor lines tested
same,optimal GCV concentration,[7],~20 µM
same,sensitivity to GCV after TPAC vector treatment,[8],highly sensitive
B1,neurons formed relative to control cultures,[9]; 10 ng/mL,approximately 3 fold
B2,neurons formed relative to control cultures,[9]; 1 ng/mL,approximately 2 fold
